Experimental findings from PMC6133161, “Thiazoles with cyclopropyl fragment as antifungal, anticonvulsant, and anti-Toxoplasma gondii agents: synthesis, toxicity evaluation, and molecular docking study” (Medicinal Chemistry Research, 2018) are described below.

Data set [1] relates to maximal electroshock seizures. Briefly: Maximal electroshock seizure (MES) test. The data set is classed as in vivo, mouse. Conditions: mice; for responders at 100 mg/kg / responders at 30 mg/kg: Mus musculus; for responders at 100 mg/kg / animals with reduced seizures / responders at 30 mg/kg: MES test; for responders at 100 mg/kg: 100 mg/kg ip, read-out: X/Y number of mice protected (X) per number of mice tested (Y) (converted); for animals with reduced seizures: 100 mg/kg; for responders at 30 mg/kg: 30 mg/kg ip, read-out: X/Y number of mice protected (X) per number of mice tested (Y); for anticonvulsant activity in MES test: 30 mg/kg. Here is the method:
For in vivo tests that assessed anticonvulsant properties of the test compounds 3a–3j adult male Albino Swiss (CD-1) mice weighing between 18 and 22 g were used. The animals were housed in groups of ten mice per cage at room temperature of 22 ± 2 °C, under light/dark (12:12) cycle. The animals had free access to food and tap water before the experiments. The ambient temperature of the experimental room and humidity (50 ± 10%) were kept consistent throughout all the tests. For behavioral experiments the animals were selected randomly. Each experimental group consisted of 4–8 animals/dose. The experiments were performed between 9 AM and 2 PM. Immediately after the in vivo assay the animals were euthanized by cervical dislocation. All procedures were approved by the Local Ethics Committee of the Jagiellonian University in Krakow (34/2018, 1.02.2018)) and the treatment of animals was in full accordance with ethical standards laid down in respective Polish and EU regulations (Directive No. 86/609/EEC). For in vivo tests the compounds 3a–3j were prepared in 1% Tween 80 solution (POCH, Poland) and they were administered by the intraperitoneal route. Control mice received 1% Tween 80. Pentylenetetrazole (PTZ), pilocarpine hydrochloride and scopolamine butylbromide were provided by Sigma Aldrich (Poland). For the tests they were prepared in 0.9% saline (Polfa Kutno, Poland). PTZ and pilocarpine were administered 60 min after the test compound or vehicle. To assess anticonvulsant properties of the test compounds anticonvulsant screening was conducted. Four assays were used: PTZ, maximal electroshock seizure (MES), 6-Hz and pilocarpine tests. In these assays the dose of 100 mg/kg was chosen as a starting dose. If it turned out to be effective, a lower dose (30 mg/kg) was also tested. MES test was performed according to a method previously described (Sałat et al. [2005]). In this test vehicle-treated mice and drug-treated mice received a stimulus of 25 mA delivered by an electroshock generator (Hugo Sachs rodent shocker, Germany) to induce maximal seizures (tonic extension) of hind limbs. Electroconvulsions were produced with the use of auricular electrodes and the stimulus duration was 0.2 s. Tonic extension of the hind limbs was regarded as the endpoint for this procedure.

The test system of data set [2] is 6-Hz psychomotor seizures. The experiment in a line: 6-Hz test. In kind it is in vivo, mouse. Conditions: mice; for responders at 100 mg/kg: 100 mg/kg ip. Here is the method:
For in vivo tests that assessed anticonvulsant properties of the test compounds 3a-3j adult male Albino Swiss (CD-1) mice weighing between 18 and 22 g were used. The animals were housed in groups of ten mice per cage at room temperature of 22 ± 2 °C, under light/dark (12:12) cycle. The animals had free access to food and tap water before the experiments. The ambient temperature of the experimental room and humidity (50 ± 10%) were kept consistent throughout all the tests. For behavioral experiments the animals were selected randomly. Each experimental group consisted of 4-8 animals/dose. The experiments were performed between 9 AM and 2 PM. Immediately after the in vivo assay the animals were euthanized by cervical dislocation. All procedures were approved by the Local Ethics Committee of the Jagiellonian University in Krakow (34/2018, 1.02.2018)) and the treatment of animals was in full accordance with ethical standards laid down in respective Polish and EU regulations (Directive No. 86/609/EEC). For in vivo tests the compounds 3a-3j were prepared in 1% Tween 80 solution (POCH, Poland) and they were administered by the intraperitoneal route. Control mice received 1% Tween 80. Pentylenetetrazole (PTZ), pilocarpine hydrochloride and scopolamine butylbromide were provided by Sigma Aldrich (Poland). For the tests they were prepared in 0.9% saline (Polfa Kutno, Poland). PTZ and pilocarpine were administered 60 min after the test compound or vehicle. To assess anticonvulsant properties of the test compounds anticonvulsant screening was conducted. Four assays were used: PTZ, maximal electroshock seizure (MES), 6-Hz and pilocarpine tests. In these assays the dose of 100 mg/kg was chosen as a starting dose. If it turned out to be effective, a lower dose (30 mg/kg) was also tested. This test was performed according to (Barton et al. [2001]). It is an alternative electroshock paradigm that involves low-frequency (6 Hz), long-duration (3 s) electrical stimulation. Corneal stimulation (0.2 ms-duration monopolar rectangular pulses at 6 Hz for 3 s) was delivered by a constant-current device. During electrical stimulation mice were manually restrained and released into the observation cage immediately after current application. At the time of drug administration a drop of 0.5% tetracaine ([…] sterile solution, […] Pharmaceuticals Inc., USA) was applied into the eyes of all animals. Prior to the placement of corneal electrodes, a drop of 0.9% saline was applied on the eyes. In this model seizures manifest in 'stunned' posture associated with rearing, forelimb automatic movements and clonus, twitching of the vibrissae and Straub-tail. At the end of the seizure episode the animals resume their normal exploratory behavior. In this test protection against a seizure episode is considered as the end point and animals are considered to be protected if they resume their normal exploratory behavior within 10 s after electrical stimulation.

The mark [3] stands for this setting: Mus musculus, read-out: X/Y number of mice protected (X) per number of mice tested (Y) (converted).

Regarding `Fc1ccc(-c2csc(N/N=C/C3CC3)n2)cc1` [Compound 3a, (E)-2-(2-(Cyclopropylmethylene)hydrazinyl)-4-(4-fluorophenyl)thiazole], the responders at 100 mg/kg in data set [1] is 37.5%; in data set [2] (setting [3]) it was 25%.
The melting point is the temperature of the solid-liquid transition. Compound `Brc1ccc(-c2csc(N/N=C/C3CC3)n2)cc1` [Compound 3b, (E)-4-(4-Bromophenyl)-2-(2-(cyclopropylmethylene)hydrazinyl)thiazole] returned a melting point of 165 to 167 °C. The responders at 100 mg/kg in data set [1] was 37.5%. The responders at 100 mg/kg in data set [2] (setting [3]) was 0%.
Compound `Clc1ccc(-c2csc(N/N=C/C3CC3)n2)cc1` [Compound 3c, (E)-4-(4-Chlorophenyl)-2-(2-(cyclopropylmethylene)hydrazinyl)thiazole] displayed a melting point of 162 to 163 °C. Also, in data set [1], the “animals with reduced seizures” value worked out at 75%, the responders at 30 mg/kg was determined as 0%, the responders at 100 mg/kg was 75% and the “anticonvulsant activity in MES test” value is listed as “not active”. For the same compound, the responders at 100 mg/kg in data set [2] (setting [3]) is 25%.
In the case of `Cc1ccc(-c2csc(N/N=C/C3CC3)n2)cc1` [Compound 3d, (E)-2-(2-(Cyclopropylmethylene)hydrazinyl)-4-p-tolylthiazole], the responders at 100 mg/kg in data set [1] was 37.5%; in data set [2] (setting [3]), 50%.
Consider `FC(F)(F)c1ccc(-c2csc(N/N=C/C3CC3)n2)cc1` [Compound 3e, (E)-2-(2-(Cyclopropylmethylene)hydrazinyl)-4-(4-(trifluoromethyl)phenyl)thiazole], for which the melting point is 132 to 134 °C. In data set [1], the “animals with reduced seizures” value turned out to be 63%, the responders at 30 mg/kg turned out to be 0%, the responders at 100 mg/kg is 62.5% and the “anticonvulsant activity in MES test” value is reported as “not active”. Moreover, in data set [2] (setting [3]), the responders at 100 mg/kg was 25%.
The compound `COc1ccc(-c2csc(N/N=C/C3CC3)n2)cc1` [Compound 3f, (E)-2-(2-(Cyclopropylmethylene)hydrazinyl)-4-(4-methoxyphenyl)thiazole] gave a melting point of 149 to 152 °C. Moreover, the responders at 100 mg/kg in data set [1] is 50%. Also, the responders at 100 mg/kg in data set [2] (setting [3]) was 50%.
Take `Fc1ccc(-c2csc(N/N=C/C3CC3)n2)c(F)c1` [Compound 3g, (E)-2-(2-(Cyclopropylmethylene)hydrazinyl)-4-(2,4-difluorophenyl)thiazole]: the responders at 100 mg/kg in data set [1] is 37.5%; in data set [2] (setting [3]), 25%.
For `N#Cc1ccc(-c2csc(N/N=C/C3CC3)n2)cc1` [Compound 3h, (E)-4-(2-(2-(Cyclopropylmethylene)hydrazinyl)thiazol-4-yl)benzonitrile] the same measures were 50% and 50%.
In turn, `[N-]=[N+]=Nc1ccc(-c2csc(N/N=C/C3CC3)n2)cc1` [Compound 3i, (E)-4-(4-Azidophenyl)-2-(2-(cyclopropylmethylene)hydrazinyl)thiazole] gave a melting point of 124 to 126 °C. In data set [1], the responders at 100 mg/kg is 37.5%. The responders at 30 mg/kg in data set [2] (Mus musculus, 30 mg/kg ip, read-out: X/Y number of mice protected (X) per number of mice tested (Y) (converted)) was 25%. For the same compound, the responders at 100 mg/kg in data set [2] (setting [3]) is 75%. Besides, in data set [2] (100 mg/kg), the “animals protected from seizures” value is recorded as 75%.
`O=[N+]([O-])c1ccc(-c2csc(N/N=C/C3CC3)n2)cc1` [Compound 3j, (E)-2-(2-(Cyclopropylmethylene)hydrazinyl)-4-(4-nitrophenyl)thiazole]: the responders at 100 mg/kg in data set [1] was 50%; in data set [2] (setting [3]), 0%.
